{
  "source": "patent US9266939B2",
  "about": "“Compositions comprising natriuretic peptides and methods of use thereof” (Alexion Pharmaceuticals, Inc., priority 2010, dated 2016)",
  "tested_on": "wild-type (CD-1) mice",
  "experiment": "Daily bolus SC injection of NC2st on bone growth in wild-type (CD-1) mice",
  "format": "in vivo",
  "method": "The study was designed to evaluate the relationship between different doses of NC2st and the pharmacologic response on bone. The relationship was evaluated by measuring the effect of increasing doses of NC2st (SEQ ID NO: 502; as described, e.g., in Example 1) on bone growth in wild-type (WT, CD-1) mice. Bone growth response of wild-type and Fgfr3^369/+ (ACH) mice was compared.\nCD-1 mice are a standard rodent species for use in pharmacodynamic studies. Briefly, nursing mothers with fostered female pups of 13 to 16 days were obtained. At the age of 21 days, pups were weaned and randomized based on body weight into treatment groups.\nThe animals received NC2st as a subcutaneous injection into the interscapular region as described in Table 11 below.\nCD-1 mice were treated at 3 weeks old at the indicated doses for 35 consecutive days, followed by necropsy 24 hours after the last injection.\nEx vivo radiographs of whole body, rib cage, and skull were taken using a Faxitron model MX-20 DC4 under constant conditions (26 kV, 10 sec at 1×, 3× and 3× magnification, respectively). Bone measurements were performed on the radiographic images of all animals in a blinded fashion using the software Image Processing and Analysis in Java (ImageJ).\nBone samples were cleaned of excess tissue (not scraped) and fixed. Length of femur and tibia was measured using a caliper.",
  "key": {"[1]": {"settings": "day 36, Tx-30 (30 mg/kg SC once daily)"}, "[2]": {"settings": "day 36, Tx-100 (100 mg/kg SC once daily)"}},
  "note": "Where “and” joins values, the source holds several entries; their conditions need not be identical. Equal entries are not always repeated. Marks after values point to notes of the source that are not given here.",
  "data": [
    {"substance": "NC2st: Fc-CNP fusion: Strep-tag II, TEV site, human IgG-1 Fc, 16-amino acid glycine-rich linker, CNP22; SEQ ID NO: 502", "values": [
      {"measurement": "Left Humerus length", "setting": "[1]", "result": "12.5* mm"},
      {"measurement": "Left Tibia length", "setting": "[1]", "result": "18.9* mm"},
      {"measurement": "Left Ulna length", "setting": "[1]", "result": 14.5, "unit": "mm"},
      {"measurement": "Lumbar segment (X-Ray)", "setting": "[1]", "result": "21.1* mm"},
      {"measurement": "Metatarsal bone (3rd digit) (X-Ray)", "setting": "[1]", "result": "24.8* mm"},
      {"measurement": "Naso-anal length (X-Ray)", "setting": "[1]", "result": "118* mm"},
      {"measurement": "Occipital-front distance (X-Ray)", "setting": "[1]", "result": 42.8, "unit": "mm"},
      {"measurement": "Right Tibia length in vivo", "setting": "[1]", "result": "19.4* mm"},
      {"measurement": "Sternum length (X-Ray)", "setting": "[1]", "result": "39.9* mm"},
      {"measurement": "Tail length in vivo", "setting": "[1]", "result": "106* mm"},
      {"measurement": "Thoracic segment (X-Ray)", "setting": "[1]", "result": "26.2* mm"},
      {"measurement": "Total CTL segments (X-Ray)", "setting": "[1]", "result": "56.7* mm"},
      {"measurement": "Δ Cervical segment (X-Ray) compared to Vehicle", "setting": "[1]", "result": 1.14, "unit": "mm"},
      {"measurement": "Δ Circularity index (X-Ray) compared to Vehicle", "setting": "[1]", "result": "−0.015"},
      {"measurement": "Δ Crown-rump length in vivo compared to Vehicle", "setting": "[1]", "result": 7.1, "unit": "mm"},
      {"measurement": "Δ Foramen magnum height compared to Vehicle", "setting": "[1]", "result": 0.04, "unit": "mm"},
      {"measurement": "Δ Foramen magnum width compared to Vehicle", "setting": "[1]", "result": 0.07, "unit": "mm"},
      {"measurement": "Δ Left Femur length compared to Vehicle", "setting": "[1]", "result": 0.9, "unit": "mm"},
      {"measurement": "Δ Left Humerus length compared to Vehicle", "setting": "[1]", "result": 0.3, "unit": "mm"},
      {"measurement": "Δ Left Tibia length compared to Vehicle", "setting": "[1]", "result": 0.9, "unit": "mm"},
      {"measurement": "Δ Left Ulna length compared to Vehicle", "setting": "[1]", "result": 0.5, "unit": "mm"},
      {"measurement": "Δ Lumbar segment (X-Ray) compared to Vehicle", "setting": "[1]", "result": 1.8, "unit": "mm"},
      {"measurement": "Δ Metatarsal bone (3rd digit) (X-Ray) compared to Vehicle", "setting": "[1]", "result": 1.5, "unit": "mm"},
      {"measurement": "Δ Naso-anal length (X-Ray) compared to Vehicle", "setting": "[1]", "result": 10, "unit": "mm"},
      {"measurement": "Δ Occipital-front distance (X-Ray) compared to Vehicle", "setting": "[1]", "result": 0.5, "unit": "mm"},
      {"measurement": "Δ Right Tibia length in vivo compared to Vehicle", "setting": "[1]", "result": 0.60, "unit": "mm"},
      {"measurement": "Δ Sternum length (X-Ray) compared to Vehicle", "setting": "[1]", "result": 3.9, "unit": "mm"},
      {"measurement": "Δ Tail length in vivo compared to Vehicle", "setting": "[1]", "result": 9.9, "unit": "mm"},
      {"measurement": "Δ Thoracic segment (X-Ray) compared to Vehicle", "setting": "[1]", "result": 3.3, "unit": "mm"},
      {"measurement": "Δ Total CTL segments (X-Ray) compared to Vehicle", "setting": "[1]", "result": 6.2, "unit": "mm"},
      {"measurement": "% Δ Cervical segment (X-Ray) compared to Vehicle", "setting": "[2]", "result": 20.3, "unit": "%"},
      {"measurement": "% Δ Circularity index (X-Ray) compared to Vehicle", "setting": "[2]", "result": "−7.4", "unit": "%"},
      {"measurement": "% Δ Crown-rump length in vivo compared to Vehicle", "setting": "[2]", "result": 12.7, "unit": "%"},
      {"measurement": "% Δ Foramen magnum height compared to Vehicle", "setting": "[2]", "result": 2.2, "unit": "%"},
      {"measurement": "% Δ Foramen magnum width compared to Vehicle", "setting": "[2]", "result": 1.3, "unit": "%"},
      {"measurement": "% Δ Left Femur length compared to Vehicle", "setting": "[2]", "result": "10% and 9.9%"},
      {"measurement": "% Δ Left Humerus length compared to Vehicle", "setting": "[2]", "result": "6% and 5.7%"},
      {"measurement": "% Δ Left Tibia length compared to Vehicle", "setting": "[2]", "result": "7% and 7.2%"},
      {"measurement": "% Δ Left Ulna length compared to Vehicle", "setting": "[2]", "result": "6% and 5.7%"},
      {"measurement": "% Δ Lumbar segment (X-Ray) compared to Vehicle", "setting": "[2]", "result": 13.5, "unit": "%"},
      {"measurement": "% Δ Metatarsal bone (3rd digit) (X-Ray) compared to Vehicle", "setting": "[2]", "result": 12.0, "unit": "%"},
      {"measurement": "% Δ Naso-anal length (X-Ray) compared to Vehicle", "setting": "[2]", "result": 13, "unit": "%"},
      {"measurement": "% Δ Occipital-front distance (X-Ray) compared to Vehicle", "setting": "[2]", "result": 2.1, "unit": "%"},
      {"measurement": "% Δ Right Tibia length in vivo compared to Vehicle", "setting": "[2]", "result": 6.4, "unit": "%"},
      {"measurement": "% Δ Sternum length (X-Ray) compared to Vehicle", "setting": "[2]", "result": 12.5, "unit": "%"},
      {"measurement": "% Δ Tail length in vivo compared to Vehicle", "setting": "[2]", "result": 16.5, "unit": "%"},
      {"measurement": "% Δ Thoracic segment (X-Ray) compared to Vehicle", "setting": "[2]", "result": 21.0, "unit": "%"},
      {"measurement": "% Δ Total CTL segments (X-Ray) compared to Vehicle", "setting": "[2]", "result": 17.8, "unit": "%"},
      {"measurement": "Cervical segment (X-Ray)", "setting": "[2]", "result": "9.95* mm"},
      {"measurement": "Circularity index (X-Ray)", "setting": "[2]", "result": "0.349*"},
      {"measurement": "Crown-rump length in vivo", "setting": "[2]", "result": "107* mm"},
      {"measurement": "Foramen magnum height", "setting": "[2]", "result": 4.17, "unit": "mm"},
      {"measurement": "Foramen magnum width", "setting": "[2]", "result": 4.72, "unit": "mm"},
      {"measurement": "Left Femur length", "setting": "[2]", "result": "16.6* mm"},
      {"measurement": "Left Humerus length", "setting": "[2]", "result": "12.9* mm"},
      {"measurement": "Left Tibia length", "setting": "[2]", "result": "19.3* mm"},
      {"measurement": "Left Ulna length", "setting": "[2]", "result": "14.8* mm"},
      {"measurement": "Lumbar segment (X-Ray)", "setting": "[2]", "result": "21.9* mm"},
      {"measurement": "Metatarsal bone (3rd digit) (X-Ray)", "setting": "[2]", "result": "26.1* mm"},
      {"measurement": "Naso-anal length (X-Ray)", "setting": "[2]", "result": "122* mm"},
      {"measurement": "Occipital-front distance (X-Ray)", "setting": "[2]", "result": "43.2* mm"},
      {"measurement": "Right Tibia length in vivo", "setting": "[2]", "result": "20.0* mm"},
      {"measurement": "Sternum length (X-Ray)", "setting": "[2]", "result": "40.5* mm"},
      {"measurement": "Tail length in vivo", "setting": "[2]", "result": "112* mm"},
      {"measurement": "Thoracic segment (X-Ray)", "setting": "[2]", "result": "27.7* mm"},
      {"measurement": "Total CTL segments (X-Ray)", "setting": "[2]", "result": "59.5* mm"},
      {"measurement": "Δ Cervical segment (X-Ray) compared to Vehicle", "setting": "[2]", "result": 1.68, "unit": "mm"},
      {"measurement": "Δ Circularity index (X-Ray) compared to Vehicle", "setting": "[2]", "result": "−0.028"},
      {"measurement": "Δ Crown-rump length in vivo compared to Vehicle", "setting": "[2]", "result": 12.1, "unit": "mm"},
      {"measurement": "Δ Foramen magnum height compared to Vehicle", "setting": "[2]", "result": 0.09, "unit": "mm"},
      {"measurement": "Δ Foramen magnum width compared to Vehicle", "setting": "[2]", "result": 0.06, "unit": "mm"},
      {"measurement": "Δ Left Femur length compared to Vehicle", "setting": "[2]", "result": 1.5, "unit": "mm"},
      {"measurement": "Δ Left Humerus length compared to Vehicle", "setting": "[2]", "result": 0.7, "unit": "mm"},
      {"measurement": "Δ Left Tibia length compared to Vehicle", "setting": "[2]", "result": 1.3, "unit": "mm"},
      {"measurement": "Δ Left Ulna length compared to Vehicle", "setting": "[2]", "result": 0.8, "unit": "mm"},
      {"measurement": "Δ Lumbar segment (X-Ray) compared to Vehicle", "setting": "[2]", "result": 2.6, "unit": "mm"},
      {"measurement": "Δ Metatarsal bone (3rd digit) (X-Ray) compared to Vehicle", "setting": "[2]", "result": 2.8, "unit": "mm"},
      {"measurement": "Δ Naso-anal length (X-Ray) compared to Vehicle", "setting": "[2]", "result": 14, "unit": "mm"},
      {"measurement": "Δ Occipital-front distance (X-Ray) compared to Vehicle", "setting": "[2]", "result": 0.9, "unit": "mm"},
      {"measurement": "Δ Right Tibia length in vivo compared to Vehicle", "setting": "[2]", "result": 1.2, "unit": "mm"},
      {"measurement": "Δ Sternum length (X-Ray) compared to Vehicle", "setting": "[2]", "result": 4.5, "unit": "mm"},
      {"measurement": "Δ Tail length in vivo compared to Vehicle", "setting": "[2]", "result": 15.9, "unit": "mm"},
      {"measurement": "Δ Thoracic segment (X-Ray) compared to Vehicle", "setting": "[2]", "result": 4.8, "unit": "mm"},
      {"measurement": "Δ Total CTL segments (X-Ray) compared to Vehicle", "setting": "[2]", "result": 9.0, "unit": "mm"}
    ]}
  ]
}
